{
  "source": "patent US20250154468A1",
  "about": "“METHOD FOR INDUCING DEDIFFERENTIATION OF ADIPOCYTES” (City University of Hong Kong, priority 2023, published 2025)",
  "type_in_all_cases": "cell-based, mouse",
  "key": {"3T3-L1 adipocytes [1]": {"test_system": "3T3-L1 adipocytes", "assay": "Loss of lipid droplets and morphological changes of 3T3-L1 adipocytes", "design": "loss of lipid droplets: dose or concentration left out as unconfirmed", "description": "3T3-L1 (ATCC CL-173) cells were cultured in DMEM medium (Thermo Fisher, product no. 11965126) containing 10% FBS, 2 mM L-glutamine and […] of penicillin-streptomycin (Thermo Fisher).\n1.25×10^5 3T3-L1 were seeded in 6-well dishes and cultured at 37° C. and 5% CO2. The 10 μg/ml insulin (MedChemExpress, product no. HY-P0035), 1 μM dexamethasone (MedChemExpress, product no. HY-14648), 0.5 mM 3-isobutyl-1-methylxanthine (IBMX) (MedChemExpress, product no. HY-12318) and 2 μM rosiglitazone (Sigma, product no. R2408-10MG) (Differentiation medium) were supplemented in culture medium to constitute the differentiation medium for 2 days. Differentiation to SVF was induced by differentiation medium. The SVF cells were incubated for 5 days with differentiation medium. The medium was then changed to DMEM containing 10% FBS, 1×P/S, and 10 μg/ml insulin for 48 h, followed by changing to the culture medium.\n[…] […] HY-Y0873), and maintained at 37° C. and 5% CO2. The medium was changed every 3 days, being careful to avoid shaking the dish to allow the hypertonic medium to diffuse slowly in the culture dish."}, "SVF adipocytes": {"test_system": "SVF adipocytes", "assay": "Loss of lipid droplets and morphological changes of SVF-derived adipocytes", "design": "loss of lipid droplets: dose or concentration left out as unconfirmed", "description": "C57BL/6J mice were used for the present invention and maintained in a 12:12 h light-dark cycle. All mouse experiments were performed in accordance with the protocol approved by the Institutional Animal Research Ethics Sub-Committee of City University of Hong Kong and Department of Health, The Government of The Hong Kong Special Administrative Region. 6 to 8-week-old female were anesthetized with 4% of isoflurane by inhalation, and then inguinal, retroperitoneal WAT were removed. The tissues were shredded after washing in sterile PBS. Afterwards, the tissue pieces were incubated in type II collagenase (Sigma, product no. C6885) for 1 h at 37° C. before passed through a sterile 100 μm filter. SVF was obtained after 5 min centrifugation at 1000 rpm. Culture medium (DMEM supplemented with 10% FBS and 1% penicillin-streptomycin (all obtained from Thermo Fisher) was added to resuspend the cells, followed by culturing in 100 mm culture dishes. The following day, the culture medium was changed to remove the dead and non-adherent cells.\n1.25×10^5 3T3-L1 were seeded in 6-well dishes and cultured at 37° C. and 5% CO2. […]"}, "adipocytes": {"test_system": "adipocytes", "assay": "Oil Red O staining of adipocytes", "conditions": "BML-284 treatment", "description": "Adipocytes were stained with Oil red O staining kit (Solarbio, product no. G1262) solution to detect the lipid droplets according to manufacturer's instructions. Specifically, cells were fixed with 10% formalin for 20 min at room temperature, followed by washing with 60% isopropanol for 5 min. Subsequently, staining was conducted with ORO solution for 20 min at room temperature to enable binding of the dye to the lipid droplets. Finally, the cells were washed with distilled water to eliminate any residual dye."}, "[2]": {"test_system": "C/EBPβ, PPAR-γ, and adiponectin", "assay": "RT-qPCR of adipogenic markers in 3T3-L1 adipocytes", "conditions": "BML-284 treated cells", "description": "(§1) Total RNA was isolated using the RNA Extraction Kit (Takara, product no. 9767) in accordance with the manufacturer's recommended protocol. The first-strand cDNA was synthesized using the PrimeScript RT Reagent Kit (Takara, product no. RR047A) for RT-PCR. In brief, a 10 μl system containing 2 μl of 5× PrimeScript RT Master Mix (Perfect Real Time) and RNase-Free Distilled Water and RNA solution, with a total RNA amount of 500 ng, was transferred to the ABI ProFlex PCR System (2×96-well) to perform reverse transcription. RT-PCR was then conducted using the Ex-Taq PCR kit (Takara, product no. RR820A) following the manufacturer's instructions. All RT-qPCR primer sequences were included in Table 2."}, "Smad 9, Esrrb, and Sox2": {"test_system": "Smad 9, Esrrb, and Sox2", "assay": "RT-qPCR of multipotency / stem cell marker genes in adipocytes", "conditions": "BML-284 treated cells", "description": "as §1"}, "CD13 and Endoglin": {"test_system": "CD13 and Endoglin", "assay": "Immunostaining of surface markers of dedifferentiated adipocytes", "conditions": "BML-284 treated cells", "description": "Twelve hours before the experiment, cells were seeded onto cover slips in 12-well dishes and cultured overnight at 37° C. and […]. Cells were fixed with […] for 10 min at 4° C. Next, the cells were either directly incubated with 1% BSA/PBS for 1 h or first permeabilized with 0.1% Triton X-100/PBS for 10 min at 4° C. before blocking with 1% BSA/PBS. Subsequently, CD13 primary antibody (Santa Cruz, product no. sc-13536 1:100) or Endoglin primary antibody (Santa Cruz, product no. sc-18838 1:100) was incubated with cells overnight at 4° C. Following 3 times washing in 0.5% tween/PBS, cells were incubated with secondary antibody (CST, product no. 8890S) in 1% BSA/PBS (1:400) in darkness for 1.5 hours at room temperature. After further washing, cells were mounted with DAPI (Thermo Fisher, product no. 62247) and examined with a Nikon A1HD25 confocal microscope."}, "3T3-L1 adipocytes [3]": {"test_system": "3T3-L1 adipocytes", "assay": "Osteogenic re-differentiation of treated 3T3-L1 adipocytes", "conditions": "BML-284-treated adipocytes", "description": "The osteogenic and chondrogenic re-differentiation capacities of dedifferentiated adipocytes were also examined. To induce osteogenic differentiation, 1×10^6 cells were seeded in 6-well plates and incubated overnight at 37° C. and 5% CO2. The culture medium was then replaced with StemPro Osteogenesis Differentiation medium (Thermo Fisher, product no. A1007201) and cells were maintained in this medium for up to 14 days, with medium renewal every 3 days. This medium contains specific factors that promote differentiation towards the osteogenic lineage, allowing the cells to deposit mineralized extracellular matrix and express osteogenic markers.\nAlkaline phosphatase (ALP) staining was conducted on Day 9 of the feeder cell-mediated reprogramming process, following the manufacturer's instructions for the Alkaline Phosphatase Detection Kit (Sigma, product no. SCR004). The staining was performed to detect the activity of ALP, a marker of pluripotency, and to assess the success of the reprogramming process.\nTotal RNA was isolated using the RNA Extraction Kit (Takara, product no. 9767) in accordance with the manufacturer's recommended protocol. The first-strand cDNA was synthesized using the PrimeScript RT Reagent Kit (Takara, product no. RR047A) for RT-PCR. […]"}, "3T3-L1 adipocytes [4]": {"test_system": "3T3-L1 adipocytes", "assay": "Chondrogenic re-differentiation of treated 3T3-L1 adipocytes", "conditions": "BML-284-treated adipocytes"}, "3T3-L1 adipocytes [5]": {"test_system": "3T3-L1 adipocytes", "assay": "AnnexinV-FITC/PI staining, apoptosis of adipocytes", "conditions": "comparison of BML-284 and hypertonic treatment", "description": "The hypertonic dedifferentiation of adipocytes typically requires up to 7 days of culture in 2% PEG-300. Considering that TNF-α is recognized as a proinflammatory cytokine capable of inducing adipocyte apoptosis, an evaluation of the apoptotic status of adipocytes was carried out using AnnexinV-FITC/PI staining. […] It was concluded that the extended hypertonic treatment could lead to apoptosis alongside the dedifferentiation of adipocytes."}, "[6]": {"test_system": "VDAC and NDUFA9 in the EVs of 3T3-L1 adipocytes", "assay": "Immunoblot of mitochondrial proteins in EVs of 3T3-L1 adipocytes", "description": "To obtain lysates, cells were washed twice with cold PBS and lysed with 1 mL of RIPA buffer (Beyotime, product no. P0013B) at 4° C. for 1 hour with gentle rotation. The lysate was subsequently centrifuged at 12,000 g for 20 min at 4° C., and the resulting supernatant was quantified the protein concentration. Protein extracts were then separated by SDS-PAGE and transferred onto a NC membrane (Bio-Rad, product no. 1620112). The membranes were incubated overnight at 4° C. with antibodies against VDAC (CST, product no. 4866s, 1:1000), NDUFA9 (Abcam, product no. ab14713, 1:1000), CD81(Santa Cruz, product no. sc-166029, 1:1000), Non-phospho (Active) β-Catenin (CST, product no. 8814, 1:2000), β-Catenin (CST, product no. 9562, 1:1000) and 3-actin (Santa Cruz, product no. sc-47778, 1:1000). Following incubation with the appropriate secondary antibody (Abcam, product no. ab205719; Thermo Fisher, product no. 31460, 1:4000), the protein bands were visualized using an enhanced chemiluminescence (ECL) kit (Bio-Rad, product no. 170-5061) and captured using a Bio-red ChemiDoc. […]\nThe 3T3-L1 adipocytes were treated by isotonic and hypertonic medium. […] The resuspended suspensions contain approximately 80 μg protein each as determined by DC protein assay (Bio-Rad, product no. 5000114). […]"}, "[7]": {"test_system": "mitochondria in adipocytes", "assay": "MitoTracker Green (MTG) staining of mitochondria", "conditions": "pyruvic acid (1 mM) added to the hypertonic treatment", "description": "Hypertonicity is known to disrupt the ionic homeostasis of cells and reduce the electronic potential in mitochondria, consequentially inhibiting ATP production.\nTo stain cells with MitoTracker (CST, product no. FM 9074), the 1 mM stock solution should be diluted directly into normal growth media to achieve a staining concentration ranging from 400 nM. The live cells were incubated for 15 minutes at 37° C. Following incubation, live imaging is necessary to visualize the staining pattern within the cells.\nTo mitigate mitochondrial stress, adipocytes were treated with 1 mM pyruvic acid (Sigma-Aldrich, product no. 107360) in hypertonic cultures. An equivalent volume of DMSO was added to the control samples. Following the treatment, the cells were either subjected to MTG staining or the supernatants were collected for EV isolation and analysis."}, "[8]": {"test_system": "TNF-α, IL-6, RIP1, CEBPA, and MCP-1", "assay": "RT-qPCR of inflammatory genes in 3T3-L1 adipocytes", "description": "To validate this, MEVs were isolated from the hypertonic treatment of 3T3-L1 adipocytes and subsequently applied to naïve 3T3-L1 adipocytes cultured in isotonic conditions (FIG. 6A).\nas §1"}},
  "data": [
    {"smiles": "COc1cccc(-c2cc(NCc3ccc4c(c3)OCO4)nc(N)n2)c1", "note": "[BML-284, 2-amino-4-(3,4-(methylenedioxy)benzylamino)-6-(3-methoxyphenyl)pyrimidine]", "values": [
      {"measurement": "loss of lipid droplets", "setting": "3T3-L1 adipocytes [1]; 3T3-L1 adipocytes, isotonic culture, 4 days", "result": 40, "unit": "%"},
      {"measurement": "cells with elongated morphology", "setting": "3T3-L1 adipocytes [1]; BML-284-treated 3T3-L1 adipocytes", "result": "significant increases"},
      {"measurement": "cells with elongated morphology", "setting": "SVF adipocytes; BML-284-treated SVF adipocytes", "result": "significant increases"},
      {"measurement": "loss of lipid droplets", "setting": "SVF adipocytes; SVF adipocytes, isotonic culture, 4 days", "result": 80, "unit": "%"},
      {"measurement": "Oil red staining", "setting": "adipocytes", "result": "decreased"},
      {"measurement": "expression of adipogenic genes (C/EBPβ, PPAR-γ, adiponectin)", "setting": "[2]", "result": "significant reductions"},
      {"measurement": "expression of marker genes of multipotency (Smad 9, Esrrb, Sox2)", "setting": "Smad 9, Esrrb, and Sox2", "result": "significant increases"},
      {"measurement": "expression of proteins of multipotency (CD13 and endoglin)", "setting": "CD13 and Endoglin", "result": "significant increases"},
      {"measurement": "expression of osteogenic markers after inducing treatment", "setting": "3T3-L1 adipocytes [3]", "result": "increased expression"},
      {"measurement": "expression of chondrogenic markers after inducing treatment", "setting": "3T3-L1 adipocytes [4]", "result": "increased expression"},
      {"measurement": "apoptosis in 3T3-L1 adipocytes", "setting": "3T3-L1 adipocytes [5]", "result": "did not lead to significant apoptosis"}
    ]},
    {"smiles": "O=C(/C=C/c1ccc(/C=C/C(=O)Nc2ccc(C3=NCCN3)cc2)cc1)Nc1ccc(C2=NCCN2)cc1", "note": "[GW4869]", "values": [
      {"measurement": "EVs level of NDUFA9 induced by hypertonic treatments", "setting": "[6]; 10 μM GW4869, vs DMSO", "result": "substantially inhibited"}
    ]},
    {"smiles": "CC(=O)C(=O)O", "note": "[pyruvic acid]", "values": [
      {"measurement": "MTG staining of mitochondria in adipocytes", "setting": "[7]", "result": "effectively restored"},
      {"measurement": "levels of mitochondrial proteins VDAC and NDUFA9 in the EVs", "setting": "[6]; pyruvic acid 1 mM in hypertonic culture", "result": "reduced"},
      {"measurement": "induction of TNF-α expression by hypertonic EVs", "setting": "[8]; EVs from hypertonic culture with pyruvic acid", "result": "prevented"},
      {"measurement": "induction of TNF-α and IL-6 expression in hypertonic culture", "setting": "[8]; pyruvic acid added to the hypertonic culture, 2 hours", "result": "abolished"}
    ]}
  ]
}
